# According to patent US20260286308A1, “COMPOSITION CONTAINING EXTRACELLULAR MATRIX AND MATRIX-BOUND VESICLES FOR PRODUCING EXTRACELLULAR MATRIX AND PREPARATION METHOD THEREFOR” (HLB CELL CO., LTD, priority 2023, published 2026):
# Read-outs that look alike come from different tables or passages of the source.
# Columns and labels:
# [1] = system: human fibroblast/keratinocyte culture; assay: Total collagen produced in culture medium of co-cultured human fibroblasts/keratinocytes after administration of NAC; assay type: cell-based; settings: for total collagen produced: 13 days, control without NAC 77.1-99.5 μg/mL, FIG. 27
# Protocol: (§1) The human keratinocyte culture obtained by culture for 7 days according to Example 3.1.2 was removed, followed by washing once with PBS. Thereafter, 3 mL of Accutase was added, and then the keratinocytes were suspended by treatment with chemical reaction for 10 minutes in an incubator at 37° C. After 40 mL of PBS was added to the Accutase solution, the mixture was centrifuged at 800 rpm and 25° C. for 5 minutes, and the supernatant was then removed. To the keratinocyte precipitate, FAD medium (DMEM/F12 (1:1)+Glutamax-I, 1% penicillin, 2 mM L-glutamine, 10 mg/L insulin, 5.5 mg/L transferrin, 5 μg/L selenite, 50 μM L-ascorbic acid 2-phosphate, 1 μM hydrocortisone, 0.02 nM triiodothyronine (T3), 10 μg/L epidermal growth factor (EGF), and 1 μM isoproterenol) supplemented with 5% fatal bovine serum was added. The human dermal fibroblasts culture obtained by culture for 7 days in Example 3.1.1 was removed, and then the keratinocytes were dispensed thereon at a density of 1-2×10^6 cells per culture dish and cultured in an incubator at 37° C. for 24 hours.
# (§2) The human fibroblast/keratinocyte culture obtained by culture for 24 hours according to Example 3.1.3 was removed, followed by washing once with PBS. To 35 mL of a serum-free FAD medium (DMEM/F12 (1:1)+Glutamax-I, 1% penicillin, 2 mM L-glutamine, 10 mg/L insulin, 5.5 mg/L transferrin, 5 μg/L selenite, 50 μM L-ascorbic acid 2-phosphate, 1 μM hydrocortisone, 0.02 nM triiodothyronine (T3), 10 μg/L epidermal growth factor (EGF), and 1 μM isoproterenol), N-acetyl cysteine (NAC) was added at a concentration of 0.1 mM, 0.5 mM, 1 mM, or 5 mM, and then the cells were cultured in an incubator at 37° C. for a total of 13 days while the medium was exchanged every 2-3 days. The culture obtained by previous culture was collected.
# (§3) The analysis method followed the manufacturer's instructions.
# Human fibroblasts [2] = settings: for extracellular matrix production: 0.02 nM triiodothyronine or 1 μM isoprenaline added to medium with insulin, EGF and hydrocortisone (Table 2), FIGS. 10 and 11
# Protocol: as §3
# Culture media each lacking an individual factor were prepared, and then culture was performed according to Example 1.1.
# Then, culture was performed according to Example 1.1.
# [3] = system: human fibroblast/keratinocyte culture; assay: Type IV collagen produced in culture medium of co-cultured human fibroblasts/keratinocytes after administration of vitamin C; assay type: cell-based; settings: serum-free FAD medium, 13 days, FIG. 28
# Protocol: as §1
# as §2, with “vitamin C” for “N-acetyl cysteine (NAC)”, “50 μM, 100 μM,” for “0.1 mM, 0.5 mM, 1 mM,”, “200 μM,” for “5 mM,”
# as §3
# Human fibroblasts [4] = assay: Total collagen content in cell culture of single-cultured human fibroblasts (Sirius Red kit, absorbance 530 nm); settings: 50 μM ascorbate-2-phosphate added to medium with insulin, EGF and hydrocortisone (Table 2); FIG. 11
# Protocol: To measure the human collagen content in the extracellular matrix present in a culture obtained according to each example described below, quantitative analysis was conducted by utilizing a commercially available Sirius Red kit (Chondrex, #9062). The analysis method followed the manufacturer's instructions. Specifically, Sirius Red solution was added to the culture, followed by incubation, and the precipitated collagen was then mixed with an acidic solution and quantitatively analyzed by measurement of absorbance at 530 nm.
# Human fibroblasts were seeded at a density of 3×10^5 cells per 150-mm^2 culture dish. The cells were cultured in high-glucose Dulbecco's Modified Eagle's Medium (DMEM) supplemented with 10% fetal bovine serum and 1% penicillin for 7 days while a growth medium was exchanged every 2-3 days.
# (§4) After being cultured according to Example 1.1.1, the cells were further cultured from day 8 using a serum-free/xeno-free culture medium [Dulbecco's Modified Eagle Medium: Ham's F-12 (1:1) supplemented with 100 (DMEM/F12) U/mL penicillin/streptomycin, 2 mM L-alanyl-L-glutamine, 5 μg/L selenium, 50 M ascorbate-2-phosphate, 10 mg/L insulin, 1 μM hydrocortisone, 0.02 nM triiodothyronine, 1 μM isoprenaline, and 10 μg/L epidermal growth factor] while the medium was exchanged at intervals of 2 to 3 days. […] The cell culture after collection was analyzed according to Example 3. […]
# Human fibroblasts [5] = assay: Laminin content in cell culture of single-cultured human fibroblasts (anti-human laminin antibody plate kit, absorbance 450 nm); settings: 50 μM ascorbate-2-phosphate added to medium with insulin, EGF and hydrocortisone (Table 2); FIG. 10
# Protocol: To measure the amount of human laminin component in the extracellular matrix present in a culture obtained according to each example described below, quantitative analysis was conducted by using a commercially available analysis kit (TakaRa, MK107). The analysis method followed the manufacturer's instructions. Specifically, the culture was added onto a 96-well plate coated with an anti-human laminin antibody, followed by incubation. Thereafter, residues were washed off, and a chromogenic enzyme-conjugated specific antibody was added, followed by incubation. Then, quantitative analysis was conducted by measurement of the absorbance at 450 nm.
# Human fibroblasts were seeded at a density of 3×10^5 cells per 150-mm^2 culture dish. […]
# as §4
# [6] = NAC at a concentration of 1 mM or higher (1 mM, 5 mM)
# [7] = factor individually removed from serum-free/xeno-free culture medium (Table 1), compared with medium containing all factors, FIGS. 8 and 9
compound,measurement,setting,value
"CC(=O)N[C@@H](CS)C(=O)O [NAC, N-acetyl cysteine]",total collagen produced,[1]; 0.1 mM NAC in serum-free FAD medium,122.1 to 137.5 µg/mL
same,total collagen produced,[1]; 0.5 mM NAC in serum-free FAD medium,112.7 to 130.9 µg/mL
same,amount of collagen produced,[1]; [6],reduced
same,cytotoxicity,[1]; [6],cytotoxicity was observed
O=C[C@H](O)[C@@H](O)[C@H](O)[C@H](O)CO [glucose],amount of extracellular matrix produced,"Human fibroblasts [2]; glucose concentration 55 mM in DMEM medium (compared with 5.5, 25 and 40 mM), FIGS. 14 and 15",reduced
"C[C@]12CCC(=O)C=C1CC[C@@H]1[C@@H]2[C@@H](O)C[C@@]2(C)[C@H]1CC[C@]2(O)C(=O)CO [hydrocortisone, reference compound]",amount of extracellular matrix produced,Human fibroblasts [2]; [7],significantly reduced
"CC(C)NCC(O)c1ccc(O)c(O)c1 (centres unmarked) [isoprenaline, reference compound]",extracellular matrix production,Human fibroblasts [2],affected
"N[C@@H](Cc1cc(I)c(Oc2ccc(O)c(I)c2)c(I)c1)C(=O)O [triiodothyronine, reference compound]",extracellular matrix production,Human fibroblasts [2],affected
O=C1O[C@H]([C@@H](O)CO)C(O)=C1O [vitamin C],Type IV collagen produced,[3]; 50 μM vitamin C (called control group),4.17 µg/mL
same,Type IV collagen produced,[3]; 100 μM vitamin C,5.6 µg/mL
same,Type IV collagen produced,[3]; 200 μM vitamin C,5.69 µg/mL
ascorbate-2-phosphate,collagen production,Human fibroblasts [4],greatly affected
same,laminin production,Human fibroblasts [5],did not affect
"insulin: additive of the serum-free/xeno-free culture medium, 10 mg/L",amount of extracellular matrix produced,Human fibroblasts [2]; [7],significantly reduced
